{"source": "patent US20040048900A1", "about": "“Nicotine and/or nicotine agonists for the treatment of general anesthetic effects and side effects” (priority 2002, published 2004)", "key": {"[1]": {"tested_on": "norepinephrine levels in brain and spinal cord", "assay": "HPLC of norepinephrine, 5-HT, dopamine and metabolites after DSP-4", "type": "in vivo, mice", "settings": "DSP4-treated n = 2", "excerpt": "(§1) How could nicotinic inhibition cause hyperalgesia? Nicotine is thought to exert its analgesic action by increasing the release of norepinephrine, serotonin and acetylcholine onto the relay neurons in the dorsal horn of the spinal cord (Rao, 1996; and Reuter, 2000). Isoflurane might reduce pain threshold by inhibiting nicotinic acetylcholine receptors tonically active in potentiating the release of norepinephrine, serotonin and/or acetylcholine. To test the role of the α-adrenergic system, mice were treated systemically with the adrenergic neurotoxin DSP-4 to deplete norepinephrine levels (Jonsson, 1981). The DSP-4 mice 14 days after treatment were tested for HPWL in the presence of isoflurane alone or isoflurane with nicotine pretreatment (see methods).\nThe HPLC procedures were conducted according to the methods described by Underwood et al. (Underwood, 1999)."}, "[2]": {"settings": "Qian, 1993; Badio, 1994; cited from earlier work"}, "[3]": {"tested_on": "mice", "excerpt": "Nicotinic acetylcholine receptors are involved in the mechanism of isoflurane hyperalgesia, and nicotinic inhibition could be the initiating event.\nas §1\nTo test the role of muscarinic receptors for acetylcholine, mice were treated with the nonspecific muscarinic antagonist, atropine. A cholinergic neurotoxin could not be used for these studies, because removing all cholinergic neurons would have nicotinic in addition to muscarinic effects. Instead, postsynaptic muscarinic blockade was used. ACh causes analgesia, at least in part due to muscarinic stimulation (Chiari, 1999; Smith, 1989; and Lavand'homme, 1999). […] High concentrations of atropine can block nicotinic acetylcholine receptors as well (Zwart, 1997)."}, "[4]": {"tested_on": "seizures induced by NMDA", "settings": "McDonough, 1995; cited from earlier work"}, "[5]": {"assay": "in vivo", "settings": "female, mouse, plasma, 5 mg/kg", "experimental": "(§2) The duration of mecamylamine's action was tested with two control experiments. First, 5 mice were injected with mecamylamine 5 mg/kg IP or saline. These mice were then tested at 1-hour intervals with nicotine 1 mg/kg IP. […] Mecamylamine plasma concentration was measured in 5 female mice, 1 hour after I.P. injection using a combination of Gas Chromatography and Mass Spectroscopy described by Jacob et al. (Jacob, 2000)."}, "[6]": {"tested_on": "mice", "assay": "Nicotine-induced prostration, duration of mecamylamine blockade", "experimental": "as §2"}, "[7]": {"tested_on": "NMDA", "settings": "O'Dell, 1988; Papke, 2001; cited from earlier work"}, "[8]": {"target": "T1, human α4β2 nAChRs expressed in Xenopus oocytes (Homo sapiens, UniProt P17787+P43681)", "T1 construct": "expressed in transfected cells; host or cells: Xenopus laevis oocytes injected with cRNA (1:1 α4 to β2)", "T1 sequence (P43681 29-627 limits assumed)": "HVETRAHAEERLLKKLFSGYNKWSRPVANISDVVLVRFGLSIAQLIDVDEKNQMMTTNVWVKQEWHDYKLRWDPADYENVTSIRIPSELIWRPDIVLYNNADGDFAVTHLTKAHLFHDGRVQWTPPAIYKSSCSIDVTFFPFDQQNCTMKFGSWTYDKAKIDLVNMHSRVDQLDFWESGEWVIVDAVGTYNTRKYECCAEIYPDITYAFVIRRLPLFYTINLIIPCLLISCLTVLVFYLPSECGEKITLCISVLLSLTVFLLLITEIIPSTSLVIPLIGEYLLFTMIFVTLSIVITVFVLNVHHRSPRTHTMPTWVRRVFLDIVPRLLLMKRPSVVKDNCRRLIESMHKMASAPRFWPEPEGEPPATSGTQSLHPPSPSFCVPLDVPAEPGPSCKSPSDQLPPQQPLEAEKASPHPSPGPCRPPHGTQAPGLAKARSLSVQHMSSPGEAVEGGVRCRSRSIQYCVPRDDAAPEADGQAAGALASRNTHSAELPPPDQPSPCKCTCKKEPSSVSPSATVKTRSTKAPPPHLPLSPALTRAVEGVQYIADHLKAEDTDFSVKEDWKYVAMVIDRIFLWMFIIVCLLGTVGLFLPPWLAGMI", "T1 sequence (P17787 26-502)": "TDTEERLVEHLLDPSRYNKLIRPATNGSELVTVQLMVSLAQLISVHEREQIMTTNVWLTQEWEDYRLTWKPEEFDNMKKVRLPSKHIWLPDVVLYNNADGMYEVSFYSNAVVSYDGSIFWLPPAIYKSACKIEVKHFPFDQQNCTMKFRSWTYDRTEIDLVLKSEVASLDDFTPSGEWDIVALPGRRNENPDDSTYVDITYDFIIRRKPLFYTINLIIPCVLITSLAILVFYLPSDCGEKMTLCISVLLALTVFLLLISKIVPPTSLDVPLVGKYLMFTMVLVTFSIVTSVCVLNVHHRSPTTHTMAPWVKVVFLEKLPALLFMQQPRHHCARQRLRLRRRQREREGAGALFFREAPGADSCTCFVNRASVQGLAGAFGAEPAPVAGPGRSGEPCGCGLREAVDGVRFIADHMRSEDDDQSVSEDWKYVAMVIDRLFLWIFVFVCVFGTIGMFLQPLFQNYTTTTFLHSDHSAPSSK", "assay": "Two-microelectrode voltage clamp of ACh-activated currents in Xenopus oocytes", "type": "cell-based", "protocol": "The human α4 and β2 type nAChRs were in a pSP64 expression vector. Standard techniques were used to linearize the vectors and use them as templates to make cRNA using SP6 as the polymerase. The human nicotinic clones were a gift from Dr. Jon Lindstrom, Ph.D. (Department of Neuroscience, University of Pennsylvania, Philadelphia, Pa.).\nXenopus laevis oocytes were removed from the females and defolliculated with collagenase. After the oocytes rested for 24 hours in L-15 oocyte medium, about 10 ng of a 1:1 ratio of α4 to β2 cRNA were injected into individual oocytes. A manual injector was used for this process (Nanoject; Drummond Scientific, Broomall, Pa.). The oocytes were incubated for 2-5 days in ND-96 medium (NaCl 96 mM, KCl 2 mM, MgCl2 1 mM, CaCl2 H2O 1.8 mM, HEPES 5 mM, Na-pyruvate 2.5 mM, theophylline 0.5 mM, and 10mg/L of gentamicin, adjusted to pH 7.5).\nWhole oocytes were used to record currents using a Gene-Clamp 500 two-microelectrode voltage-clamp amplifier with an active ground (Axon Instruments, Inc., Foster, Cailf.). The recording electrodes were pulled from glass capillary tubing (Drummond, Broomall, Pa.) to obtain a resistance between 1 and 5 MΩ and filled with 3M KCl. Ba^2 Ringer's solution was used as the extracellular solution in order to avoid current amplification by calcium activated chloride currents (115 mM NaCl, 2.5 mM KCl, 1.8 mM BaCl2, 10 mM HEPES, 1 μM atropine, pH 7.4). Atropine was included to avoid activation of intrinsic muscarinic receptors. Experiments were performed at room temperature. Isoflurane was prepared from a saturated solution by serial dilution. Concentrations were verified by gas chromatography.\nOocytes were tested at a membrane potential of −60 mV. Bolus application of the agonist +/− indicated antagonist(s) was applied at a rate of 4 ml/min for a 2 second application.\nAntagonists were pre-applied for 2 minutes prior to activation. Concentration response curves were made from the percent change in peak current from ACh activation in the presence of antagonist(s), compared to ACh alone. As the ACh concentration at central neuronal nAChRs is unknown, 1 mM ACh (saturating) was used to detect inhibition by isoflurane and mecamylamine experiments with mecamylamine. ACh 2 μM was used to detect potentiation by nicotine. Currents were measured in 5-8 cells for each data point. Clampex 7 (Axon instruments, Foster City, Calif.) was used for data acquisition.\nMicrocal Origins 5.0 (Microcal, Northampton, Mass.) was used for statistical calculations and graphical presentation. The in vitro data were fit to a modified Hill equation, y=100/(1+(x/IC50)^n), where IC50 is the concentration of drug at which of 50% of the response is inhibited and n is the Hill coefficient."}, "[9]": {"settings": "nicotine 1 mg/kg, Thompson, 1982, cited from earlier work"}, "[10]": {"tested_on": "non-smoking volunteers", "settings": "cited from earlier work"}, "[11]": {"tested_on": "women having pelvic surgery", "protocol": "In a double blind, randomized trial of women having pelvic surgery with an isoflurane anesthetic, either nicotine (nasal spray, 3 mg) or saline placebo was administered just prior to emergence from anesthesia. Postoperative pain was assessed using the visual analog scale (VAS). In the VAS, patients are asked how much pain they have on a scale from 0-10 where 0 is no pain and 10 is the worst pain imaginable. All patients had access to essentially unlimited morphine in a PCA pump as is routine after this type of surgery."}, "[12]": {"tested_on": "^3H-norepinephrine release from female mouse lumbar spinal cord slice", "assay": "3H-norepinephrine release from superfused spinal cord slice", "settings": "1 mM nicotine in perfusion buffer, p<0.02", "text": "Spinal Cord Slice Preparation: The spinal cord was dissected from the mouse. Under CO2 narcosis the mouse was decapitated. The spinal column was removed and placed into cold dissection solution where the spinal cord was removed with a dissection microscope. The lumbar section of the cord was isolated and imbedded in a 3% low melting point agar (Fisher Scientific) block made in dissection solution. Transverse 400 micrometer slices were made using a Vibratone VT1000S slicing apparatus (Leica, Whetzlar, Germany). Slicing was performed in ice cold Krebs solution bubbled with 5%CO2/95%O2.\nThe cord slices were incubated in a solution of 1 ml of Krebs solution and 10 ul of 1-[7,8-^3H] noradrenaline in a closed environment surrounded by Krebs solution bubbled with CO2/O2 for 30 minutes. The slices were transferred into a superfusion and stimulation chamber (Warner Instruments Inc.,) where Krebs solution was allowed to perfuse over them for 30 minutes at a rate of 0.5 ml/min. The superfusion chamber thermostatically temperature controlled at 37° C. The solutions were pumped to the chamber at a constant rate of 0.5 ml/min using a Kwik-Pump 290 (Long). Following a 30 minute period for equilibration, collections were taken every 1-2.5 minutes. Ecolite scintillation fluid (15 ml) was then added to each collection vial. The samples were analyzed for radioactivity (CPM) using a Packard TRI CARB 2100 TR scintillation counter (Meriden, Conn.).\nDissection Krebs Solution (mM) NaCl 125, KCl 2.5, NaHCO3 26, NaH2PO4-H2O1.25, MgCl2 6,CaCl2 1.5, glucose 2.5. Perfusion Krebs Solution (mM) NaCl 125, KCl 2.5, NaHCO3 26, NaH2PO4—H2O 1.25, MgCl2 1,CaCl2 2, glucose 2.5.\nAfter incubation with ^3H-norepinephrine, the cord slices were perfused with buffer for 30 minutes at 0.5 ml/minute. After equilibration, samples containing released ^3H-norepinephrine were collected at 2.5 minute intervals. After determination of baseline release, the slices were stimulated with 1 mM nicotine in the perfusion buffer."}, "[13]": {"settings": "3 mg intranasally, Fishbein, 2000"}, "[14]": {"settings": "3 mg intranasally, Guthrie, 1999"}}, "data": [{"molecule": "CCN(CCCl)Cc1ccccc1Br", "note": "[DSP4]", "values": [{"measurement": "MHPG concentration (HPLC)", "setting": "[1]; Brain Stem, control 253.3", "result": 104.9}, {"measurement": "HVA concentration (HPLC)", "setting": "[1]; Brain Stem, control 300.1", "result": 275.2}, {"measurement": "DA concentration (HPLC)", "setting": "[1]; Brain Stem, control 599.2", "result": 621.0}, {"measurement": "DOPAC concentration (HPLC)", "setting": "[1]; Brain Stem, control 662.4", "result": 494.6}, {"measurement": "NE concentration (HPLC)", "setting": "[1]; Brain Stem, control 1044.1", "result": 811.2}, {"measurement": "5-HT concentration (HPLC)", "setting": "[1]; Brain Stem, control 2336.9", "result": 2140.3}, {"measurement": "5HIAA concentration (HPLC)", "setting": "[1]; Brain Stem, control 2972.1", "result": 2746.9}, {"measurement": "HVA concentration (HPLC)", "setting": "[1]; Medulla, control 118.5", "result": 88.0}, {"measurement": "DA concentration (HPLC)", "setting": "[1]; Medulla, control 168.7", "result": 138.2}, {"measurement": "MHPG concentration (HPLC)", "setting": "[1]; Medulla, control 194.5", "result": 139.3}, {"measurement": "DOPAC concentration (HPLC)", "setting": "[1]; Medulla, control 248.3", "result": 196.0}, {"measurement": "5-HT concentration (HPLC)", "setting": "[1]; Medulla, control 1152.5", "result": 1054.9}, {"measurement": "5HIAA concentration (HPLC)", "setting": "[1]; Medulla, control 1184.1", "result": 1302.6}, {"measurement": "NE concentration (HPLC)", "setting": "[1]; Medulla, control 1408.8", "result": 812.0}, {"measurement": "HVA concentration (HPLC)", "setting": "[1]; Pons, control 100.7", "result": 181.6}, {"measurement": "DA concentration (HPLC)", "setting": "[1]; Pons, control 128.1", "result": 379.6}, {"measurement": "MHPG concentration (HPLC)", "setting": "[1]; Pons, control 235.9", "result": 122.1}, {"measurement": "DOPAC concentration (HPLC)", "setting": "[1]; Pons, control 341.8", "result": 345.3}, {"measurement": "5-HT concentration (HPLC)", "setting": "[1]; Pons, control 996.8", "result": 1597.6}, {"measurement": "5HIAA concentration (HPLC)", "setting": "[1]; Pons, control 1334.6", "result": 2024.7}, {"measurement": "NE concentration (HPLC)", "setting": "[1]; Pons, control 1345.9", "result": 811.6}, {"measurement": "HVA concentration (HPLC)", "setting": "[1]; Spinal cord, control 38.2", "result": 23.0}, {"measurement": "MHPG concentration (HPLC)", "setting": "[1]; Spinal cord, control 82.5", "result": 62.6}, {"measurement": "DOPAC concentration (HPLC)", "setting": "[1]; Spinal cord, control 136.4", "result": 118.8}, {"measurement": "DA concentration (HPLC)", "setting": "[1]; Spinal cord, control 182.6", "result": 210.9}, {"measurement": "NE concentration (HPLC)", "setting": "[1]; Spinal cord, control 798.8", "result": 587.6}, {"measurement": "5HIAA concentration (HPLC)", "setting": "[1]; Spinal cord, control 1057.9", "result": 1111.3}, {"measurement": "5-HT concentration (HPLC)", "setting": "[1]; Spinal cord, control 1122.1", "result": 808.6}]}, {"molecule": "Clc1ccc(C2CC3CCC2N3)cn1", "note": "(stereo not drawn) [Epibatidine]", "values": [{"measurement": "potency for analgesia relative to morphine", "setting": "[2]", "result": "approximately 200 times"}]}, {"molecule": "CN1[C@@H]2CC[C@H]1C[C@@H](OC(=O)C(CO)c1ccccc1)C2", "note": "(stereo partly drawn) [atropine]", "values": [{"measurement": "effect on hyperalgesic response to isoflurane", "setting": "[3]; atropine 5 mg/kg", "result": "had no effect on the hyperalgesic response to isoflurane"}, {"measurement": "minimum concentration that caused baseline hyperalgesia", "setting": "[3]; mouse, in vivo", "result": 5, "unit": "mg/kg"}]}, {"molecule": "CNC1(C)C2CCC(C2)C1(C)C", "note": "(stereo not drawn) [mecamylamine]", "values": [{"measurement": "ED50 for inhibition of seizures induced by NMDA", "setting": "[4]", "result": "12 ± 3.2", "unit": "mg/kg"}, {"measurement": "concentration at 1 h", "setting": "[5]; intraperitoneal", "result": "200 ± 70", "unit": "nM"}, {"measurement": "concentration at 1 h", "setting": "[5]; ip", "result": 203, "unit": "nM"}, {"measurement": "duration of blockade of prostration from nicotine 1 mg/kg IP", "setting": "[6]; mecamylamine 5 mg/kg IP, tested at 1-hour intervals", "result": "up to 4 hours"}, {"measurement": "concentration range with NMDA antagonist properties", "setting": "[7]", "result": "~100", "unit": "µM"}, {"measurement": "mode of antagonism at heteromeric nAChRs", "setting": "[8]", "result": "non-competitive antagonists"}, {"measurement": "IC50", "setting": "[8]; 1 mM ACh, −60 mV, room temperature, read-out: IC50 for inhibition of α4β2 nAChR", "result": "290 ± 50", "unit": "nM"}, {"measurement": "interaction of mecamylamine and isoflurane applied together (isobolographic analysis)", "setting": "[8]; inhibition of α4β2 nAChR activation", "result": "within the 95% confidence intervals for additivity"}]}, {"molecule": "CN1CCC[C@H]1c1cccnc1", "note": "[nicotine, (s)-(−)-nicotine]", "values": [{"measurement": "detectability by HPLC at 40 minutes", "setting": "[9]", "result": "undetectable by HPLC at 40 minutes"}, {"measurement": "peak concentration", "setting": "[9]; at 5 minutes", "result": "approximately 2 μM"}, {"measurement": "time until mice lay prone", "setting": "[6]; nicotine 1 mg/kg IP, mice not pretreated with mecamylamine", "result": "≤ 5", "unit": "min"}, {"measurement": "average increase in systolic blood pressure", "setting": "[10]; [13]", "result": "7 mM of mercury"}, {"measurement": "diastolic blood pressure or heart rate", "setting": "[10]; [13]", "result": "no change"}, {"measurement": "arterial peak concentration", "setting": "[10]; [14]", "result": 100, "unit": "µM"}, {"measurement": "steady state venous concentration", "setting": "[10]; [14]", "result": 30, "unit": "µM"}, {"measurement": "time of peak effect", "setting": "[10]; intranasal nicotine", "result": "peak effect in five minutes"}, {"measurement": "time until effect is dissipated", "setting": "[10]; intranasal nicotine", "result": "dissipated in about one hour"}, {"measurement": "ill effects", "setting": "[11]; nicotine nasal spray 3 mg", "result": "no severe ill effects"}, {"measurement": "postoperative pain, VAS scores", "setting": "[11]; nicotine nasal spray 3 mg prior to emergence vs saline placebo", "result": "significantly lower VAS scores"}, {"measurement": "heart rate", "setting": "[11]; nicotine nasal spray 3 mg vs placebo", "result": "higher heart rates"}, {"measurement": "morphine used in the first hour (PCA pump)", "setting": "[11]; nicotine nasal spray 3 mg, placebo 12 mg", "result": 4, "unit": "mg"}, {"measurement": "blood pressures", "setting": "[11]; with or without nicotine", "result": "not different"}, {"measurement": "analgesia by ICV nicotine", "setting": "[3]; mouse, in vivo", "result": "caused significant analgesia both in the presence and absence of isoflurane"}, {"measurement": "effect of ICV nicotine on isoflurane hyperalgesia", "setting": "[3]; mouse, in vivo", "result": "did not prevent hyperalgesia with isoflurane"}, {"measurement": "protection against isoflurane hyperalgesia in presence of atropine", "setting": "[3]; nicotine 1 mg/kg, atropine 5 mg/kg", "result": "remained protective against the hyperalgesia"}, {"measurement": "effect on HPWL in DSP-4 treated mice", "setting": "[3]; nicotine pretreatment, baseline or isoflurane", "result": "without effect"}, {"measurement": "release of ^3H-norepinephrine", "setting": "[12]", "result": "caused an increase in the release of ^3H-norepinephrine"}, {"measurement": "current relative to ACh 2 μM alone in presence of isoflurane", "setting": "[8]; ACh 2 μM nicotine 2 μM, given concentration of isoflurane", "result": "always larger"}, {"measurement": "current relative to ACh alone", "setting": "[8]; nicotine 2 μM added to ACh 2 μM", "result": "produces a larger current than ACh alone"}]}]}
